In patent US9169241B2, “Quinolinyloxyphenylsulfonamides” (Max-Planck-Gesellschaft Zur Forderung der Wissenschaften …, priority 2009, dated 2015):

How the values were obtained:
Assay in all cases: Matrigel outgrowth assay/branching assay
Type in all cases: cell-based
[1] = tested on: SF126; conditions: Homo sapiens, SF-126, Table Vb, read-out: Total branching inhibition in Matrigel SF126
Summary of the method: (§1)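 Cells (5000/well) were seeded onto polymerized 3 mg/ml Matrigel with compound at 3.125, 1.56 or 0.78 μM, or DMSO. Imaging by inverted microscopy at 48, 72 and 96 h scored invasive branching. Only concentrations giving total branching inhibition counted as positive.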

[2] = tested on: U118; conditions: Table Vb, read-out: Total branching inhibition in Matrigel U118
Summary of the method: as §1

[3] = tested on: A172; conditions: Homo sapiens, A 172, Table Vb, read-out: Total branching inhibition in Matrigel A172
Summary of the method: as §1

Row | SMILES | IC100 [1] | IC100 [2] | IC100 [3]
1 | COc1cc2c(Oc3ccc(NS(=O)(=O)c4c(Cl)cccc4Cl)cc3F)ccnc2cc1OCCCN1CCCCC1 [Example 6, 2,6-Dichloro-N-{3-fluoro-4-[6-methoxy-7-(3-piperidin-1-yl-propoxy)-quinolin-4-yloxy]-phenyl}-benzenesulfonamide] | ≤ 12.5 µM | ≤ 12.5 µM | > 12.5 µM
2 | COc1cc2c(Oc3ccc(NS(=O)(=O)c4c(F)cccc4F)cc3F)ccnc2cc1OCCCN1CCCCC1 [Example 11, 2,6-Difluoro-N-{3-fluoro-4-[6-methoxy-7-(3-piperidin-1-yl-propoxy)-quinolin-4-yloxy]-phenyl}-benzenesulfonamide] | > 12.5 µM | > 12.5 µM | > 12.5 µM
3 | COc1cc2c(Oc3ccc(NS(=O)(=O)c4ccccc4[N+](=O)[O-])cc3F)ccnc2cc1OCCCN1CCCC(C)C1 (stereo not drawn) [Example 40, N-(3-Fluoro-4-{6-methoxy-7-[3-(3-methyl-piperidin-1-yl)-propoxy]-quinolin-4-yloxy}-phenyl)-2-nitro-benzenesulfonamide] | ≤ 12.5 µM | > 12.5 µM | > 12.5 µM
4 | COc1cc2c(Oc3ccc(NS(=O)(=O)c4ccccc4OC(F)(F)F)cc3F)ccnc2cc1OCCCN1CCCC(C)C1 (stereo not drawn) [Example 45, N-(3-Fluoro-4-{6-methoxy-7-[3-(3-methyl-piperidin-1-yl)-propoxy]-quinolin-4-yloxy}-phenyl)-2-trifluoromethoxy-benzenesulfonamide] | ≤ 12.5 µM | ≤ 12.5 µM | > 12.5 µM
5 | COc1cc2c(Oc3ccc(NS(=O)(=O)c4ccc(F)c(F)c4F)cc3F)ccnc2cc1OCCCN1CCCC(C)C1 (stereo not drawn) [Example 49, 2,3,4-Trifluoro-N-(3-fluoro-4-{6-methoxy-7-[3-(3-methyl-piperidin-1-yl)-propoxy]-quinolin-4-yloxy}-phenyl)-benzenesulfonamide] | > 12.5 µM | > 12.5 µM | > 12.5 µM
6 | COc1cc2c(Oc3ccc(NS(=O)(=O)c4c(Cl)cccc4Cl)cc3F)ccnc2cc1OCCCN1CCCC(C)C1 (stereo not drawn) [Example 51, 2,6-Dichloro-N-(3-fluoro-4-{6-methoxy-7-[3-(3-methyl-piperidin-1-yl)-propoxy]-quinolin-4-yloxy}-phenyl)-benzenesulfonamide] | ≤ 12.5 µM | ≤ 12.5 µM | > 12.5 µM
7 | COc1cc2c(Oc3ccc(NS(=O)(=O)c4cccc(Cl)c4F)cc3F)ccnc2cc1OCCCN1CCCC(C)C1 (stereo not drawn) [Example 54, 3-Chloro-2-fluoro-N-(3-fluoro-4-{6-methoxy-7-[3-(3-methyl-piperidin-1-yl)-propoxy]-quinolin-4-yloxy}-phenyl)-benzenesulfonamide] | ≤ 12.5 µM | > 12.5 µM | > 12.5 µM
8 | COc1cc2c(Oc3ccc(NS(=O)(=O)c4ccccc4OC(F)(F)F)cc3F)ccnc2cc1OCCCN1CCCCC1 [Example 78, N-{3-Fluoro-4-[6-methoxy-7-(3-piperidin-1-yl-propoxy)-quinolin-4-yloxy]-phenyl}-2-trifluoromethoxy-benzenesulfonamide] | ≤ 12.5 µM | > 12.5 µM | > 12.5 µM
9 | COc1cc2c(Oc3ccc(NS(=O)(=O)c4ccccc4C(F)(F)F)cc3F)ccnc2cc1OCCCN1CCCCC1C (stereo not drawn) [Example 99, N-(3-Fluoro-4-{6-methoxy-7-[3-(2-methyl-piperidin-1-yl)-propoxy]-quinolin-4-yloxy}-phenyl)-2-trifluoromethyl-benzenesulfonamide] | ≤ 12.5 µM | ≤ 12.5 µM | > 12.5 µM
10 | COc1cc2c(Oc3ccc(NS(=O)(=O)c4ccccc4C(F)(F)F)cc3F)ccnc2cc1OCCCN(C)C [Example 100, N-{4-[7-(3-Dimethylamino-propoxy)-6-methoxy-quinolin-4-yloxy]-3-fluoro-phenyl}-2-trifluoromethyl-benzenesulfonamide] | ≤ 12.5 µM | ≤ 12.5 µM | > 12.5 µM
11 | COc1cc2c(Oc3ccc(NS(=O)(=O)c4c(Cl)cccc4Cl)cc3F)ccnc2cc1OCCN1CCOCC1 [Example 104, 2,6-Dichloro-N-{3-fluoro-4-[6-methoxy-7-(2-morpholin-4-yl-ethoxy)-quinolin-4-yloxy]-phenyl}-benzenesulfonamide] | > 12.5 µM | > 12.5 µM | > 12.5 µM
12 | COc1cc2c(Oc3ccc(NS(=O)(=O)c4c(F)cccc4F)cc3F)ccnc2cc1OCCCN1CCN(C)CC1 [Example 110, 2,6-Difluoro-N-(3-fluoro-4-{6-methoxy-7-[3-(4-methyl-piperazin-1-yl)-propoxy]-quinolin-4-yloxy}-phenyl)-benzenesulfonamide] | ≤ 12.5 µM | ≤ 12.5 µM | > 12.5 µM
13 | COc1cc2c(Oc3ccc(NS(=O)(=O)c4cc(F)ccc4F)cc3Cl)ccnc2cc1OCCCN1CCN(C)CC1 [Example 112, N-(3-Chloro-4-{6-methoxy-7-[3-(4-methyl-piperazin-1-yl)-propoxy]-quinolin-4-yloxy}-phenyl)-2,5-difluoro-benzenesulfonamide] | ≤ 12.5 µM | ≤ 12.5 µM | ≤ 12.5 µM
14 | COc1cc2c(Oc3ccc(NS(=O)(=O)c4c(Cl)cccc4Cl)cc3Cl)ccnc2cc1OCCCN1CCN(C)CC1 [Example 119, 2,6-Dichloro-N-(3-chloro-4-{6-methoxy-7-[3-(4-methyl-piperazin-1-yl)-propoxy]-quinolin-4-yloxy}-phenyl)-benzenesulfonamide] | ≤ 12.5 µM | ≤ 12.5 µM | ≤ 12.5 µM
15 | COC(=O)c1sccc1S(=O)(=O)Nc1ccc(Oc2ccnc3cc(OCCCN4CCCCC4)c(OC)cc23)c(F)c1 [Example 155, 3-{3-Fluoro-4-[6-methoxy-7-(3-piperidin-1-yl-propoxy)-quinolin-4-yloxy]-phenylsulfamoyl}-thiophene-2-carboxylic acid methyl ester] | ≤ 12.5 µM | ≤ 12.5 µM | ≤ 12.5 µM
16 | COC(=O)c1sccc1S(=O)(=O)Nc1ccc(Oc2ccnc3cc(OCCCN4CCC(C)CC4)c(OC)cc23)c(F)c1 [Example 156, 3-(3-Fluoro-4-{6-methoxy-7-[3-(4-methyl-piperidin-1-yl)-propoxy]-quinolin-4-yloxy}-phenylsulfamoyl)-thiophene-2-carboxylic acid methyl ester] | ≤ 12.5 µM | ≤ 12.5 µM | > 12.5 µM
17 | COC(=O)c1sccc1S(=O)(=O)Nc1ccc(Oc2ccnc3cc(OCCCN4CCOCC4)c(OC)cc23)c(F)c1 [Example 157, 3-{3-Fluoro-4-[6-methoxy-7-(3-morpholin-4-yl-propoxy)-quinolin-4-yloxy]-phenylsulfamoyl}-thiophene-2-carboxylic acid methyl ester] | ≤ 12.5 µM | > 12.5 µM | > 12.5 µM
18 | COC(=O)c1sccc1S(=O)(=O)Nc1ccc(Oc2ccnc3cc(OCCCN4CCN(C)CC4)c(OC)cc23)c(F)c1 [Example 158, 3-(3-Fluoro-4-{6-methoxy-7-[3-(4-methyl-piperazin-1-yl)-propoxy]-quinolin-4-yloxy}-phenylsulfamoyl)-thiophene-2-carboxylic acid methyl ester] | ≤ 12.5 µM | ≤ 12.5 µM | > 12.5 µM
19 | COc1cc2c(Oc3ccc(NS(=O)(=O)c4c(F)cccc4F)cc3F)ccnc2cc1OCCCN(C)C [Example 178, N-{4-[7-(3-Dimethylamino-propoxy)-6-methoxy-quinolin-4-yloxy]-3-fluoro-phenyl}-2,6-difluoro-benzenesulfonamide] | ≤ 12.5 µM | ≤ 12.5 µM | > 12.5 µM
